Measured values taken from article PMC8869984, “Multifunctional Silver(I) Complexes with Metronidazole Drug Reveal Antimicrobial Properties and Antitumor Activity against Human Hepatoma and Colorectal Adenocarcinoma Cells” (Cancers, 2022).

How the values were obtained:
Caco-2 cells [1] = test: MTT assay (mitochondrial activity), 72 h exposure; format: cell-based, human; conditions: Caco-2, MTT, Figure 6
Caco-2 cells [2] = test: NRU assay (lysosomal activity), 72 h exposure; format: cell-based, human; conditions: Caco-2, NRU, Figure 6
Caco-2 cells [3] = test: TPC assay (total protein content), 72 h exposure; format: cell-based, human; conditions: Caco-2, TPC, Figure 6
Caco-2 cells [4] = test: LDH leakage assay (membrane integrity), 72 h exposure; format: cell-based, human; conditions: Caco-2, LDH, Figure 6
S. aureus ATCC 25923 = test: micro-dilution broth method (MIC, MBC); format: cell-based, Staphylococcus aureus
[5] = test system: S. epidermidis ATCC 12228; test: micro-dilution broth method (MIC, MBC); format: cell-based, Staphylococcus epidermidis
M. luteus ATCC 10240 = test: micro-dilution broth method (MIC, MBC); format: cell-based, Micrococcus luteus
B. subtilis ATCC 6633 = test: micro-dilution broth method (MIC, MBC); format: cell-based, Bacillus subtilis
B. cereus ATCC 10876 = test: micro-dilution broth method (MIC, MBC); format: cell-based, Bacillus cereus
E. faecalis ATCC 29212 = test: micro-dilution broth method (MIC, MBC); format: cell-based, Enterococcus faecalis
A. israeli ATCC 10049 = test: micro-dilution broth method (MIC, MBC); format: cell-based, Actinomyces israelii
P. acnes ATCC 11827 = test: micro-dilution broth method (MIC, MBC); format: cell-based, Propionibacterium acnes; conditions: P. acnes ATCC 11827, value in brackets
[6] = test system: C. perfringens ATCC 13124; test: microbe, parasite or virus in culture; format: cell-based, Clostridium perfringens
C. jejunii ATCC 33291 = test: micro-dilution broth method (MIC, MBC); format: cell-based, Campylobacter jejunii
H. pylori ATCC 43504 = test: micro-dilution broth method (MIC, MBC); format: cell-based
[7] = test system: S. typhimurium ATCC 14028; test: micro-dilution broth method (MIC, MBC); format: cell-based, Salmonella Typhimurium
E. coli ATCC 25922 = test: micro-dilution broth method (MIC, MBC); format: cell-based, Escherichia coli
K. pneumoniae ATCC 13883 = test: micro-dilution broth method (MIC, MBC); format: cell-based, Klebsiella pneumoniae
P. aeruginosa ATCC 9027 = test: micro-dilution broth method (MIC, MBC); format: cell-based, Pseudomonas aeruginosa
B. fragilis ATCC 10240 = test: micro-dilution broth method (MIC, MBC); format: cell-based, Bacteroides fragilis
P. intermedia ATCC 25611 = test: micro-dilution broth method (MIC, MBC); format: cell-based
F. nucleatum ATCC 25586 = test: micro-dilution broth method (MIC, MBC); format: cell-based, Fusobacterium nucleatum
V. parvula ATCC 10790 = test: micro-dilution broth method (MIC, MBC); format: cell-based, Veillonella parvula
[8] = test system: reference aerobic and anaerobic microorganisms (ATCC); test: micro-dilution broth method, whole panel of reference strains; format: cell-based; conditions: against the majority of tested bacterial strains
S. aureus biofilm = test: qualitative antibiofilm activity, confocal laser scanning microscope (CLSM); conditions: 500 mg/L, 24 h exposure
[9] = S. aureus ATCC 25923, value in brackets
[10] = S. epidermidis ATCC 12228, value in brackets
[11] = M. luteus ATCC 10240, value in brackets
[12] = B. subtilis ATCC 6633, value in brackets
[13] = B. cereus ATCC 10876, value in brackets
[14] = E. faecalis ATCC 29212, value in brackets
[15] = A. israeli ATCC 10049, value in brackets
[16] = C. perfringens ATCC 13124, value in brackets
[17] = C. jejunii ATCC 33291, value in brackets
[18] = H. pylori ATCC 43504, value in brackets
[19] = S. typhimurium ATCC 14028, value in brackets
[20] = E. coli ATCC 25922, value in brackets
[21] = K. pneumoniae ATCC 13883, value in brackets
[22] = P. aeruginosa ATCC 9027, value in brackets
[23] = B. fragilis ATCC 10240, value in brackets
[24] = P. intermedia ATCC 25611, value in brackets
[25] = F. nucleatum ATCC 25586, value in brackets
[26] = V. parvula ATCC 10790, value in brackets

SMILES: Cc1ncc([N+](=O)[O-])n1CCO.Cc1ncc([N+](=O)[O-])n1CCO.O=[N+]([O-])[O-].[Ag+] [[Ag(MTZ)2NO3]]
- lowest concentration with inhibition of mitochondrial activity (Caco-2 cells [1]): 5.0 µM
- lowest concentration with inhibition of lysosomal activity (Caco-2 cells [2]): 5.0 µM
- lowest concentration with decreased total protein content (Caco-2 cells [3]): 10.0 µM
- lowest concentration with significant (p ≤ 0.05) disintegration of cellular membranes (Caco-2 cells [4]): 1.0 µM
- MBC (S. aureus ATCC 25923; S. aureus ATCC 25923): 62.5 mg/L
- MIC (S. aureus ATCC 25923; S. aureus ATCC 25923): 15.6 mg/L
- MBC (S. aureus ATCC 25923; [9]): 0.2 µM/mL
- MIC (S. aureus ATCC 25923; [9]): 0.049 µM/mL
- MBC ([5]; S. epidermidis ATCC 12228): 62.5 mg/L
- MIC ([5]; S. epidermidis ATCC 12228): 7.8 mg/L
- MBC [5, 10]: 0.2 µM/mL
- MIC [5, 10]: 0.025 µM/mL
- MBC (M. luteus ATCC 10240; M. luteus ATCC 10240): 62.5 mg/L
- MIC (M. luteus ATCC 10240; M. luteus ATCC 10240): 7.8 mg/L
- MBC (M. luteus ATCC 10240; [11]): 0.2 µM/mL
- MIC (M. luteus ATCC 10240; [11]): 0.025 µM/mL
- MBC (B. subtilis ATCC 6633; B. subtilis ATCC 6633): 15.6 mg/L
- MIC (B. subtilis ATCC 6633; B. subtilis ATCC 6633): 15.6 mg/L
- MBC (B. subtilis ATCC 6633; [12]): 0.049 µM/mL
- MIC (B. subtilis ATCC 6633; [12]): 0.049 µM/mL
- MIC (B. cereus ATCC 10876; B. cereus ATCC 10876): 62.5 mg/L
- MBC (B. cereus ATCC 10876; [13]): 0.4 µM/mL
- MIC (B. cereus ATCC 10876; [13]): 0.2 µM/mL
- MBC (E. faecalis ATCC 29212; E. faecalis ATCC 29212): 62.5 mg/L
- MIC (E. faecalis ATCC 29212; E. faecalis ATCC 29212): 31.3 mg/L
- MBC (E. faecalis ATCC 29212; [14]): 0.2 µM/mL
- MIC (E. faecalis ATCC 29212; [14]): 0.1 µM/mL
- MBC (A. israeli ATCC 10049; A. israeli ATCC 10049): 3.9 mg/L
- MIC (A. israeli ATCC 10049; A. israeli ATCC 10049): 0.49 mg/L
- MBC (A. israeli ATCC 10049; [15]): 0.012 µM/mL
- MIC (A. israeli ATCC 10049; [15]): 0.0015 µM/mL
- MBC (P. acnes ATCC 11827): 0.4 µM/mL
- MIC (P. acnes ATCC 11827): 0.4 µM/mL
- MBC ([6]; C. perfringens ATCC 13124): 1.95 mg/L
- MIC ([6]; C. perfringens ATCC 13124): 1.95 mg/L
- MBC [6, 16]: 0.006 µM/mL
- MIC [6, 16]: 0.006 µM/mL
- MIC (C. jejunii ATCC 33291; C. jejunii ATCC 33291): 31.3 mg/L
- MBC (C. jejunii ATCC 33291; [17]): 0.4 µM/mL
- MIC (C. jejunii ATCC 33291; [17]): 0.1 µM/mL
- MBC (H. pylori ATCC 43504; H. pylori ATCC 43504): 15.6 mg/L
- MIC (H. pylori ATCC 43504; H. pylori ATCC 43504): 15.6 mg/L
- MBC (H. pylori ATCC 43504; [18]): 0.049 µM/mL
- MIC (H. pylori ATCC 43504; [18]): 0.049 µM/mL
- MBC ([7]; S. typhimurium ATCC 14028): 31.3 mg/L
- MIC ([7]; S. typhimurium ATCC 14028): 15.6 mg/L
- MBC [7, 19]: 0.1 µM/mL
- MIC [7, 19]: 0.049 µM/mL
- MBC (E. coli ATCC 25922; E. coli ATCC 25922): 31.3 mg/L
- MIC (E. coli ATCC 25922; E. coli ATCC 25922): 15.6 mg/L
- MBC (E. coli ATCC 25922; [20]): 0.1 µM/mL
- MIC (E. coli ATCC 25922; [20]): 0.049 µM/mL
- MBC (K. pneumoniae ATCC 13883; K. pneumoniae ATCC 13883): 31.3 mg/L
- MIC (K. pneumoniae ATCC 13883; K. pneumoniae ATCC 13883): 15.6 mg/L
- MBC (K. pneumoniae ATCC 13883; [21]): 0.1 µM/mL
- MIC (K. pneumoniae ATCC 13883; [21]): 0.049 µM/mL
- MBC (P. aeruginosa ATCC 9027; P. aeruginosa ATCC 9027): 15.6 mg/L
- MIC (P. aeruginosa ATCC 9027; P. aeruginosa ATCC 9027): 7.8 mg/L
- MBC (P. aeruginosa ATCC 9027; [22]): 0.049 µM/mL
- MIC (P. aeruginosa ATCC 9027; [22]): 0.025 µM/mL
- MBC (B. fragilis ATCC 10240; B. fragilis ATCC 10240): 0.98 mg/L
- MIC (B. fragilis ATCC 10240; B. fragilis ATCC 10240): 0.98 mg/L
- MBC (B. fragilis ATCC 10240; [23]): 0.003 µM/mL
- MIC (B. fragilis ATCC 10240; [23]): 0.003 µM/mL
- MBC (P. intermedia ATCC 25611; P. intermedia ATCC 25611): 0.98 mg/L
- MIC (P. intermedia ATCC 25611; P. intermedia ATCC 25611): 0.98 mg/L
- MBC (P. intermedia ATCC 25611; [24]): 0.003 µM/mL
- MIC (P. intermedia ATCC 25611; [24]): 0.003 µM/mL
- MBC (F. nucleatum ATCC 25586; F. nucleatum ATCC 25586): 0.98 mg/L
- MIC (F. nucleatum ATCC 25586; F. nucleatum ATCC 25586): 0.49 mg/L
- MBC (F. nucleatum ATCC 25586; [25]): 0.003 µM/mL
- MIC (F. nucleatum ATCC 25586; [25]): 0.0015 µM/mL
- MBC (V. parvula ATCC 10790; V. parvula ATCC 10790): 1.95 mg/L
- MIC (V. parvula ATCC 10790; V. parvula ATCC 10790): 1.95 mg/L
- MBC (V. parvula ATCC 10790; [26]): 0.006 µM/mL
- MIC (V. parvula ATCC 10790; [26]): 0.006 µM/mL
- minimal inhibition concentration (MIC), range [8]: 0.24 to 250 µg/mL
- effect on biofilm (CLSM, qualitative) (S. aureus biofilm): significantly reduced biofilm density
